Values joined by “and” are separate entries in the source; they are usually repeats but may differ in a detail not shown here. Identical values can stand only once.
Columns and labels:
Type in all cases: cell-based, human
SOX9 = experiment: Stem cell chondrogenesis, real time PCR gene expression: SOX9; details: Day 14; for regulation, SOX9 / Mean regulation, SOX9: fold regulation vs saline; for regulation, SOX9 / ΔCp, SOX9 / 2^-ΔΔCp vs saline, SOX9 / ΔΔCp vs saline, SOX9: single replicate well; for Mean regulation, SOX9 / Mean ΔCp, SOX9: triplicate wells; for ΔCp, SOX9: human bone marrow MSC, chondrogenic medium + TGF beta 3; for ΔCp, SOX9 / 2^-ΔΔCp vs saline, SOX9 / ΔΔCp vs saline, SOX9 / Mean ΔCp, SOX9: vs Actin
Experimental: The treatment protocol included expanding 5 HUXMA stem cells in 182 cm^2 flasks containing 40 […] to 80-90% confluence. Cells were trypsinized from the flasks and a 1.0×10^7 cell suspension of HUXMA stem cells was warmed in Cyagen Chondrogenic Differentiation medium. 20 μl of warmed cell suspension was spotted in the middle of each well of a 24-well tissue culture plate (200,000 cells per spot), and incubated at 37° C. and 5% CO2 for one hour. […] Medium exchanges were performed every 3-4 days by aspirating the medium from the wells and replacing with fresh chondrogenic medium, diluted stocks, and TGF beta 3, as described above. […] Medium from the wells was removed and saved for further protein analysis. Qiagen RNeasy plus lysis buffer (with 2mercaptoethanol) was added to each well and gently shaken for 10 minutes. The lysed cell suspensions from each well were transferred to Qiashredder columns and spun at 14,000 rpm for 2 minutes. RNA isolation proceeded by RNeasyTM plus manufacturer's protocol. RNA was eluted from the Qiagen columns using 25 μl RNase free water. cDNA synthesis and real time PCR was conducted as follows. First strand synthesis of cDNA from all samples was performed in 20 μl total volume using 10 μl isolated RNA. All cDNA reactions were then diluted with 30 μl nuclease free water. Real time PCR was then performed using 5 μl diluted cDNA, Roche Syber green master mix, and Qiagen RT^2 gPCRTM primer pairs in 20 μl total reaction volume.

MMP13 = experiment: Stem cell chondrogenesis, real time PCR gene expression: MMP13; details: for regulation, MMP13 / Mean regulation, MMP13 / ΔCp, MMP13 / 2^-ΔΔCp vs saline, MMP13 / ΔΔCp vs saline, MMP13 / Mean ΔCp, MMP13: Day 7; for regulation, MMP13 / Mean regulation, MMP13: fold regulation vs saline; for regulation, MMP13 / ΔCp, MMP13 / 2^-ΔΔCp vs saline, MMP13 / ΔΔCp vs saline, MMP13: single replicate well; for Mean regulation, MMP13 / Mean ΔCp, MMP13: triplicate wells; for ΔCp, MMP13: human bone marrow MSC, chondrogenic medium + TGF beta 3; for ΔCp, MMP13 / 2^-ΔΔCp vs saline, MMP13 / ΔΔCp vs saline, MMP13 / Mean ΔCp, MMP13: vs Actin; for Mean regulation: vs saline; for Mean ΔCp / ΔCp: MMP13 vs GAPDH
Experimental: (§1) • Stem Cells: Bone marrow derived human mesenchymal stem cells: Passage 5 Bone marrow derived human mesenchymal stem cells (HUXMA-01001, Cyagen Biosciences, Sunnyvale Calif.) • Mesenchymal Stem Cell Chondrogenic Differentiation medium (GUXMX-90041, Cyagen Biosciences, Sunnyvale Calif.) • TheraPEAK MSCGM chemically defined Stem cell medium (190632 Lonza) • 1 mM Dexamethasone acetate and mifepristone in absolute ethanol (Sigma) • Saline or 0.9% Sodium chloride for injection ZR Flush (Excelsior Medical, Neptune N.J.) • Sterile filtered 0.6 mM sodium caprylate in saline (sigma) • Sterile filtered 3 mM NAT in saline (sigma); To prepare, heat at 60° C. for 30 minutes then sonicate for 5 minutes. • Sterile filtered 10 mM DADKP in saline • 0.2 μM syringe filters • Hepes buffered saline, Trypsin/EDTA, Trypsin neutralizing solution (Lonza reagent pack) • 182 cm2 tissue culture flasks • pipettes and sterile tips • Tissue culture hood, humidified CO2 incubator, water or bead bath • 24 well tissue culture plates • Qiagen RNeasy plus spin columns (Qiagen 74134) • Qiagen RT2 qPCR primer pairs for Collagen 2A1, MMP13, TIMP1, Aggrecan, GAPDH, and Actin B • Roche Sybr green I master mix and Invitrogen Superscript VILO master mix. • Roche 480 lightcycler
(§2) The following stock drug treatment solutions were prepared in saline for injection and warmed to 37° C. in bath: • 4 μM dexamethasone • 4 μM mifepristone • 3 mM NAT • 0.6 mM caprylate • 80 μM DADKP • Mix of 3 mM NAT, 0.6 mM caprylate, 80 μM DADKP (“Ampion” mix)
(§3) Cyagen Chondrogenic Differentiation medium was prepared by manufacturer protocols but excluding dexamethasone and TGF beta 3 supplements, and warmed to 37° C. in bath.
(§4) The treatment protocol included expanding 5 HUXMA stem cells in 182 cm^2 flasks containing 40 mls TheraPEAK™ MSCGM to 80-90% confluence. Cells were trypsinized from the flasks and a 1.0×10^7 cell suspension of HUXMA stem cells was warmed in Cyagen Chondrogenic Differentiation medium. 20 μl of warmed cell suspension was spotted in the middle of each well of a 24-well tissue culture plate (200,000 cells per spot), and incubated at 37° C. and 5% CO2 for one hour.
(§5) The plates were removed from the incubator and an additional 720 μl chondrogenic medium was added to each well. 250 μl saline, or drug solutions were added to the appropriate wells in triplicate (bringing the final drug dilution to one-quarter of the stock drug treatment solution concentrations). 10 μl of TGF beta 3 solution (supplied by Cyagen) was added to each well, and the plates were returned to the incubator.
(§6) RNA isolation and analysis was conducted for all plates as follows at days 7, 14, and 22 post treatment (with the described medium exchanges). […] Qiagen RNeasy plus lysis buffer (with 2mercaptoethanol) was added to each well and gently shaken for 10 minutes. The lysed cell suspensions from each well were transferred to Qiashredder columns and spun at 14,000 rpm for 2 minutes. RNA isolation proceeded by RNeasy™ plus manufacturer's protocol. RNA was eluted from the Qiagen columns using 25 μl RNase free water.
(§7) cDNA synthesis and real time PCR was conducted as follows. First strand synthesis of cDNA from all samples was performed in 20 μl total volume using 10 μl isolated RNA. All cDNA reactions were then diluted with 30 μl nuclease free water. Real time PCR was then performed using 5 μl diluted cDNA, Roche Syber green master mix, and Qiagen RT^2 gPCR™ primer pairs in 20 μl total reaction volume. Relative gene expression was determined by delta deta Ct method.

Aggrecan = experiment: Stem cell chondrogenesis, real time PCR gene expression: Aggrecan; details: Day 22; for Mean ΔCp / ΔCp: Aggrecan vs Actin; for Mean regulation / regulation: vs saline
Experimental: as §1, §2, §3, §4, §5, §6, §7

TIMP1 = experiment: Stem cell chondrogenesis, real time PCR gene expression: TIMP1; details: Day 22; for Mean regulation / regulation: vs saline; for Mean ΔCp / ΔCp: TIMP1 vs Actin
Experimental: as §1, §2, §3, §4, §5, §6, §7

Collagen 2A1 = experiment: Stem cell chondrogenesis, real time PCR gene expression: Collagen 2A1; details: for Mean regulation / regulation: vs saline; for Mean ΔCp / ΔCp: Collagen 2A1 vs GAPDH; for regulation, Collagen 2A1 / Mean regulation, Collagen 2A1: fold regulation vs saline; for regulation, Collagen 2A1 / ΔCp, Collagen 2A1 / 2^-ΔΔCp vs saline, Collagen 2A1 / ΔΔCp vs saline, Collagen 2A1: single replicate well; for Mean regulation, Collagen 2A1 / Mean ΔCp, Collagen 2A1: triplicate wells; for ΔCp, Collagen 2A1: human bone marrow MSC, chondrogenic medium + TGF beta 3; for ΔCp, Collagen 2A1 / 2^-ΔΔCp vs saline, Collagen 2A1 / ΔΔCp vs saline, Collagen 2A1 / Mean ΔCp, Collagen 2A1: vs Actin
Experimental: as §1, §2, §3, §4, §5, §6, §7

CCCCCCCC(=O)[O-].[Na+] [Caprylate, sodium caprylate]
regulation, SOX9 (SOX9): 1.16 and 1.99 and 2.28
Mean regulation, SOX9 (SOX9): 1.81
ΔCp, SOX9 (SOX9): 6.97 and 6.19 and 5.99
2^-ΔΔCp vs saline, SOX9 (SOX9): 1.1567 and 1.9862 and 2.2815
ΔΔCp vs saline, SOX9 (SOX9): −0.21 and −0.99 and −1.19
Mean ΔCp, SOX9 (SOX9): 6.383
regulation, MMP13 (MMP13): −2.63 and 1.03 and −3.06
Mean regulation, MMP13 (MMP13): −1.55
ΔCp, MMP13 (MMP13): 6.03 and 4.59 and 6.25
2^-ΔΔCp vs saline, MMP13 (MMP13): 0.3807 and 1.0329 and 0.3268
ΔΔCp vs saline, MMP13 (MMP13): 1.393 and −0.05 and 1.613
Mean ΔCp, MMP13 (MMP13): 5.623
Cp Coll (MMP13; MMP13, Day 22, Table 12): 20.28 and 20.31 and 20.73
Cp Coll (MMP13; MMP13, Day 22, Table 16): 20.28 and 20.31 and 20.73
Mean regulation (MMP13; MMP13, Day 22, Table 12): 0.62
Mean regulation (MMP13; MMP13, Day 22, Table 16): 0.62
Mean ΔCp (MMP13; Day 22, Table 12): 2.733
ΔCp (MMP13; Day 22, Table 12): 3.43 and 1.9 and 2.87
Mean ΔCp (MMP13; Day 22, Table 16): 2.733
ΔCp (MMP13; Day 22, Table 16): 3.43 and 1.9 and 2.87
Mean ΔCp (Aggrecan; Table 12): 7.42
ΔCp (Aggrecan; Table 12): 6.11 and 9.72 and 6.43
Mean ΔCp (Aggrecan; Table 16): 7.42
ΔCp (Aggrecan; Table 16): 6.11 and 9.72 and 6.43
Cp Agg (Aggrecan; Aggrecan, Table 12): 21.64 and 25.43 and 21.95
Cp Agg (Aggrecan; Aggrecan, Table 16): 21.64 and 25.43 and 21.95
Mean regulation (Aggrecan; Aggrecan, Table 12): 10.81
Mean regulation (Aggrecan; Aggrecan, Table 16): 10.81
Cp TIMP1 (TIMP1; TIMP1, Table 12): 17.65 and 18.77 and 19.77
Cp TIMP1 (TIMP1; TIMP1, Table 16): 17.65 and 18.77 and 19.77
Mean regulation (TIMP1; TIMP1, Table 12): 1.12
Mean ΔCp (TIMP1; Table 12): 3.143
Mean ΔCp (TIMP1; Table 16): 3.143
Cp Coll (Collagen 2A1; Collagen 2A1, Day 22, Table 12): 22.93 and 25.6 and 24.26
Cp Coll (Collagen 2A1; Collagen 2A1, Day 22, Table 16): 22.93 and 25.6 and 24.26
Mean regulation (Collagen 2A1; Collagen 2A1, Day 22, Table 12): 101.18
Mean regulation (Collagen 2A1; Collagen 2A1, Day 22, Table 16): 101.18
Mean ΔCp (Collagen 2A1; Day 22, Table 12): 6.557
ΔCp (Collagen 2A1; Day 22, Table 12): 6.08 and 7.19 and 6.4
Mean ΔCp (Collagen 2A1; Day 22, Table 16): 6.557
ΔCp (Collagen 2A1; Day 22, Table 16): 6.08 and 7.19 and 6.4
regulation, Collagen 2A1 (Collagen 2A1; Day 7): 1.63 and −1.05 and −1.11
Mean regulation, Collagen 2A1 (Collagen 2A1; Day 7): −0.18
ΔCp, Collagen 2A1 (Collagen 2A1; Day 7): 6.03 and 6.81 and 6.88
2^-ΔΔCp vs saline, Collagen 2A1 (Collagen 2A1; Day 7): 1.6283 and 0.9482 and 0.9033
ΔΔCp vs saline, Collagen 2A1 (Collagen 2A1; Day 7): −0.7 and 0.077 and 0.147
Mean ΔCp, Collagen 2A1 (Collagen 2A1; Day 7): 6.573
regulation, Collagen 2A1 (Collagen 2A1; Day 14): 7.19 and 6.95 and 4.28
Mean regulation, Collagen 2A1 (Collagen 2A1; Day 14): 6.14
ΔCp, Collagen 2A1 (Collagen 2A1; Day 14): 8.21 and 8.26 and 8.96
2^-ΔΔCp vs saline, Collagen 2A1 (Collagen 2A1; Day 14): 7.1934 and 6.9483 and 4.2772
ΔΔCp vs saline, Collagen 2A1 (Collagen 2A1; Day 14): −2.85 and −2.8 and −2.1
Mean ΔCp, Collagen 2A1 (Collagen 2A1; Day 14): 8.477

CC(=O)OCC(=O)[C@@]1(O)[C@H](C)C[C@H]2[C@@H]3CCC4=CC(=O)C=C[C@]4(C)[C@@]3(F)[C@@H](O)C[C@@]21C [Dexamethasone, Dexamethasone acetate]
regulation, SOX9 (SOX9): −2.04 and −1.24 and −1.80
Mean regulation, SOX9 (SOX9): −1.69
ΔCp, SOX9 (SOX9): 8.21 and 7.49 and 8.03
2^-ΔΔCp vs saline, SOX9 (SOX9): 0.4897 and 0.8066 and 0.5548
ΔΔCp vs saline, SOX9 (SOX9): 1.03 and 0.31 and 0.85
Mean ΔCp, SOX9 (SOX9): 7.91
regulation, MMP13 (MMP13): −1.62 and 1.64 and 1.33
Mean regulation, MMP13 (MMP13): 0.45
ΔCp, MMP13 (MMP13): 5.33 and 3.92 and 4.23
2^-ΔΔCp vs saline, MMP13 (MMP13): 0.6184 and 1.6434 and 1.3256
ΔΔCp vs saline, MMP13 (MMP13): 0.693 and −0.72 and −0.41
Mean ΔCp, MMP13 (MMP13): 4.493
Cp, MMP13 (MMP13; MMP13, Day 22, Table 12): 20.77 and 20.68 and 20.35
ΔΔCp vs saline (MMP13; MMP13, Day 22, Table 12): 1.357 and 1.277 and 1.687
2^-ΔΔCp vs saline (MMP13; MMP13, Day 22, Table 16): 0.3905 and 0.4127 and 0.3106
Cp, MMP13 (MMP13; MMP13, Day 22, Table 16): 20.77 and 20.68 and 20.35
ΔΔCp vs saline (MMP13; MMP13, Day 22, Table 16): 1.357 and 1.277 and 1.687
Mean regulation (MMP13; MMP13, Day 22, Table 12): −2.73
Mean regulation (MMP13; MMP13, Day 22, Table 16): −2.73
Mean ΔCp (MMP13; Day 22, Table 12): 4.433
ΔCp (MMP13; Day 22, Table 12): 4.35 and 4.27 and 4.68
Mean ΔCp (MMP13; Day 22, Table 16): 4.433
ΔCp (MMP13; Day 22, Table 16): 4.35 and 4.27 and 4.68
Mean ΔCp (Aggrecan; Table 12): 6.523
ΔCp (Aggrecan; Table 12): 6.28 and 6.69 and 6.6
Mean ΔCp (Aggrecan; Table 16): 6.523
ΔCp (Aggrecan; Table 16): 6.28 and 6.69 and 6.6
2-ΔΔCp vs saline (Aggrecan; Aggrecan, Table 12): 15.313 and 11.525 and 12.267
Cp Agg (Aggrecan; Aggrecan, Table 12): 20.48 and 20.68 and 20.44
2^-ΔΔCp vs saline (Aggrecan; Aggrecan, Table 16): 15.313 and 11.525 and 12.267
Cp Agg (Aggrecan; Aggrecan, Table 16): 20.48 and 20.68 and 20.44
Mean regulation (Aggrecan; Aggrecan, Table 12): 13.03
regulation (Aggrecan; Aggrecan, Table 12): 15.31 and 11.52 and 12.27
Mean regulation (Aggrecan; Aggrecan, Table 16): 13.03
regulation (Aggrecan; Aggrecan, Table 16): 15.31 and 11.52 and 12.27
Cp TIMP1 (TIMP1; TIMP1, Table 12): 17.35 and 16.81
2-^ΔΔCp vs saline (TIMP1; TIMP1, Table 16): 1.5333 and 1.3256 and 1.7371
Cp TIMP1 (TIMP1; TIMP1, Table 16): 17.35 and 16.81
Mean regulation (TIMP1; TIMP1, Table 12): 1.53
regulation (TIMP1; TIMP1, Table 12): 1.33 and 1.74 and 1.53
regulation (TIMP1; TIMP1, Table 16): 1.53 and 1.33 and 1.74
Mean ΔCp (TIMP1; Table 12): 3.16
ΔCp (TIMP1; Table 12): 3.36 and 2.97 and 3.15
Mean ΔCp (TIMP1; Table 16): 3.16
ΔCp (TIMP1; Table 16): 3.15 and 3.36 and 2.97
2-^ΔΔCP vs saline (Collagen 2A1; Collagen 2A1, Day 22, Table 12): 141.7 and 196.27 and 168.51
Cp Coll (Collagen 2A1; Collagen 2A1, Day 22, Table 12): 22.42 and 21.94 and 21.42
2^-ΔΔCp vs saline (Collagen 2A1; Collagen 2A1, Day 22, Table 16): 141.7 and 196.27 and 168.51
Cp Coll (Collagen 2A1; Collagen 2A1, Day 22, Table 16): 22.42 and 21.94 and 21.42
Mean regulation (Collagen 2A1; Collagen 2A1, Day 22, Table 12): 168.82
regulation (Collagen 2A1; Collagen 2A1, Day 22, Table 12): 141.70 and 196.27 and 168.51
Mean regulation (Collagen 2A1; Collagen 2A1, Day 22, Table 16): 168.82
regulation (Collagen 2A1; Collagen 2A1, Day 22, Table 16): 141.70 and 196.27 and 168.51
Mean ΔCp (Collagen 2A1; Day 22, Table 12): 5.76
ΔCp (Collagen 2A1; Day 22, Table 12): 6 and 5.53 and 5.75
Mean ΔCp (Collagen 2A1; Day 22, Table 16): 5.76
ΔCp (Collagen 2A1; Day 22, Table 16): 6 and 5.53 and 5.75
regulation, Collagen 2A1 (Collagen 2A1; Day 7): −1.01 and 2.61 and 2.72
Mean regulation, Collagen 2A1 (Collagen 2A1; Day 7): 1.44
ΔCp, Collagen 2A1 (Collagen 2A1; Day 7): 6.75 and 5.35 and 5.29
2^-ΔΔCp vs saline, Collagen 2A1 (Collagen 2A1; Day 7): 0.9885 and 2.6087 and 2.7195
ΔΔCp vs saline, Collagen 2A1 (Collagen 2A1; Day 7): 0.017 and −1.38 and −1.44
Mean ΔCp, Collagen 2A1 (Collagen 2A1; Day 7): 5.797
regulation, Collagen 2A1 (Collagen 2A1; Day 14): 7.29 and 10.39 and 6.57
Mean regulation, Collagen 2A1 (Collagen 2A1; Day 14): 8.08
ΔCp, Collagen 2A1 (Collagen 2A1; Day 14): 8.19 and 7.68 and 8.34
2^-ΔΔCp vs saline, Collagen 2A1 (Collagen 2A1; Day 14): 7.2938 and 10.387 and 6.5735
ΔΔCp vs saline, Collagen 2A1 (Collagen 2A1; Day 14): −2.87 and −3.38 and −2.72
Mean ΔCp, Collagen 2A1 (Collagen 2A1; Day 14): 8.07
